From paper PMC6225228, “Design, Synthesis and Evaluation of N-pyrazinylbenzamides as Potential Antimycobacterial Agents” (Molecules : A Journal of Synthetic Chemistry and Natural …, 2018)
In brackets after ≈: the same amount, converted by molar mass. Like-named read-outs stand apart in the source and are kept apart here.

Assays:
[1] = tested on: Mycobacterium tuberculosis H37Rv CNCTC My 331/88 (ATCC 27294); assay: Antimycobacterial microdilution MABA, M. tuberculosis; format: cell-based; conditions: for MIC: Mycobacterium tuberculosis; for Mtb H37Rv ATCC 27294 MIC: Middlebrook 7H9 with OADC growth supplement, pH = 6.6, MABA
[2] = tested on: M. kansasii CNCTC My 235/80 (ATCC 12478); assay: Antimycobacterial microdilution MABA, M. kansasii; format: cell-based, Mycobacterium kansasii; conditions: Mycobacterium kansasii, ATCC12478, pH 6.6, read-out: M. kans. ATCC 12478 MIC, Middlebrook 7H9 with OADC, pH 6.6, MABA
[3] = tested on: M. avium ssp. avium CNCTC My 80/72 (ATCC 15769); assay: Antimycobacterial microdilution MABA, M. avium; format: cell-based, Mycobacterium avium; conditions: Mycobacterium avium, ATCC15769, pH 6.6, read-out: M. avium ATCC 15769 MIC
[4] = tested on: Mycobacterium smegmatis CCM 4622 (ATCC 607); assay: Antimycobacterial microdilution, M. smegmatis; format: cell-based; conditions: Mycolicibacterium smegmatis, read-out: M. smeg. ATCC 607 MIC
[5] = tested on: Staphylococcus aureus CCM 4516/08; assay: Antibacterial microdilution broth, SA; format: cell-based; conditions: Staphylococcus aureus
[6] = tested on: Staphylococcus aureus H 5996/08 methicillin resistant; assay: microbe, parasite or virus in culture; format: cell-based; conditions: for MIC: Staphylococcus aureus, MRSA, read-out: MIC MRSA
[7] = tested on: Staphylococcus epidermidis H 6966/08; assay: Antibacterial microdilution broth, SE; format: cell-based; conditions: read-out: MIC SE
[8] = tested on: Enterococcus sp. J 14365/08; assay: Antibacterial microdilution broth, EF; format: cell-based; conditions: Enterococcus, read-out: MIC EF
[9] = tested on: Escherichia coli CCM 4517; assay: Antibacterial microdilution broth, EC; format: cell-based; conditions: Escherichia coli, read-out: MIC EC
[10] = tested on: Pseudomonas aeruginosa CCM 1961; assay: Antibacterial microdilution broth, PA; format: cell-based; conditions: Pseudomonas aeruginosa, read-out: MIC PA
[11] = tested on: Candida albicans ATCC 44859; assay: Antifungal microdilution broth, CA; format: cell-based; conditions: Candida albicans, read-out: MIC CA
Candida tropicalis 156 = assay: Antifungal microdilution broth, CT; format: cell-based; conditions: read-out: MIC CT
Candida krusei E28 = assay: Antifungal microdilution broth, CK; format: cell-based; conditions: Pichia kudriavzevii, read-out: MIC CK
Candida glabrata 20/I = assay: Antifungal microdilution broth, CG; format: cell-based; conditions: Nakaseomyces glabratus, 20/I, read-out: MIC CG
Trichosporon asahii 1188 = assay: Antifungal microdilution broth, TA; format: cell-based; conditions: read-out: MIC TA
[12] = tested on: Aspergillus fumigatus 231; assay: Antifungal microdilution broth, AF; format: cell-based; conditions: read-out: MIC AF
[13] = tested on: Lichtheimia corymbifera 272; assay: Antifungal microdilution broth, LC; format: cell-based; conditions: read-out: MIC LC
[14] = tested on: Trichophyton interdigitale 445; assay: Antifungal microdilution broth, TI; format: cell-based; conditions: read-out: MIC TI
[15] = tested on: eight fungal strains of clinical importance; assay: Antifungal microdilution, all tested fungal strains; format: cell-based; conditions: Trichophyton interdigitale, read-out: MIC, all tested fungal strains
[16] = human, HepG2 cells
[17] = read-out: Mtb H37Rv ATCC 27294 MIC, Middlebrook 7H9 with OADC growth supplement, pH = 6.6, MABA
[18] = CCM4516, 24 h, read-out: MIC SA, 24 h
[19] = CCM4516, 48 h, read-out: MIC SA, 48 h
[20] = Staphylococcus epidermidis, H6966/08, 24 h
[21] = Staphylococcus epidermidis, H6966/08, 48 h
[22] = Trichosporon asahii, 1188, 24 h
[23] = Trichosporon asahii, 1188, 48 h
[24] = Aspergillus fumigatus, 231, 24 h
[25] = Aspergillus fumigatus, 231, 48 h
[26] = Lichtheimia corymbifera, 272, 24 h
[27] = Lichtheimia corymbifera, 272, 48 h
[28] = Trichophyton interdigitale, 445, 72 h
[29] = Trichophyton interdigitale, 445, 120 h

Compound CC(=O)Oc1ccccc1C(=O)Nc1cnc(Cl)cn1 [Compound 2b-Ac] has an MIC [1, 17] of 12.5 µg/mL, an MIC ([1]; read-out: Mtb MIC, molar concentration) of 42.9 µM and an MIC [2] of 12.5 µg/mL (≈ 42.9 µM). The MIC [3] was 50 µg/mL (≈ 171 µM), the MIC [4] was 31.2 µg/mL (≈ 107 µM) and the MIC [5, 18] was 62.5 µM (≈ 18.2 µg/mL). The MIC [5, 19] was 125 µM (≈ 36.5 µg/mL), the MIC ([6]; 24 h) was 125 µM (≈ 36.5 µg/mL) and the MIC ([6]; 48 h) was 250 µM (≈ 72.9 µg/mL). It also gave an MIC [7, 20] of 125 µM (≈ 36.5 µg/mL), an MIC [7, 21] of 250 µM (≈ 72.9 µg/mL) and an MIC ([8]; SP.J14365/08, 24 h) of 250 µM (≈ 72.9 µg/mL). The MIC ([8]; SP.J14365/08, 48 h) was over 250 µM, the MIC ([9]; CCM4517, 24 h) was over 250 µM and the MIC ([9]; CCM4517, 48 h) was over 250 µM. For the same compound, the MIC ([10]; CCM1961, 72 h) was over 250 µM, the MIC ([10]; CCM1961, 120 h) was over 250 µM and the MIC ([11]; ATCC44859, 24 h) was 125 µM (≈ 36.5 µg/mL). For the same compound, the MIC ([11]; ATCC44859, 48 h) was 125 µM (≈ 36.5 µg/mL), the MIC (Candida tropicalis 156; Candida tropicalis, 156, 24 h) was 250 µM (≈ 72.9 µg/mL) and the MIC (Candida tropicalis 156; Candida tropicalis, 156, 48 h) was 250 µM (≈ 72.9 µg/mL). The MIC (Candida krusei E28; E28, 24 h) was 125 µM (≈ 36.5 µg/mL), the MIC (Candida krusei E28; E28, 48 h) was 125 µM (≈ 36.5 µg/mL) and the MIC (Candida glabrata 20/I; 24 h) was 250 µM (≈ 72.9 µg/mL). The MIC (Candida glabrata 20/I; 48 h) was 250 µM (≈ 72.9 µg/mL), the MIC (Trichosporon asahii 1188; [22]) was 125 µM (≈ 36.5 µg/mL) and the MIC (Trichosporon asahii 1188; [23]) was 125 µM (≈ 36.5 µg/mL). It also gave an MIC [12, 24] of 250 µM (≈ 72.9 µg/mL), an MIC [12, 25] of 250 µM (≈ 72.9 µg/mL) and an MIC [13, 26] of 125 µM (≈ 36.5 µg/mL). The MIC [13, 27] was 125 µM (≈ 36.5 µg/mL), the MIC [14, 28] was 250 µM (≈ 72.9 µg/mL) and the MIC [14, 29] was 250 µM (≈ 72.9 µg/mL). For the same compound, the MIC [15] was 125 to 250 µM (≈ 36.5 to 72.9 µg/mL) and the IC50 at 24 h [16] was 95.4 µM.

For O=C(Nc1cnc(Cl)cn1)c1cccc(O)c1 [Compound 2c], the “Mtb H37Rv ATCC 27294 MIC” value [1] was over 100 µg/mL, the MIC [1, 17] was over 100 µg/mL and the MIC [2] was over 100 µg/mL. It also gave an MIC [3] of over 100 µg/mL, an MIC [4] of at least 500 µg/mL and an MIC [5, 18] of 500 µM (≈ 125 µg/mL). The MIC [5, 19] was 500 µM (≈ 125 µg/mL), the “MIC MRSA” value ([6]; 24 h) was over 500 µM and the “MIC MRSA” value ([6]; 48 h) was over 500 µM. The MIC ([6]; 24 h) was over 500 µM, the MIC ([6]; 48 h) was over 500 µM and the MIC ([7]; 24 h) was over 500 µM. It also gave an MIC ([7]; 48 h) of over 500 µM, an MIC [7, 20] of over 500 µM and an MIC [7, 21] of over 500 µM. For the same compound, the MIC ([8]; SP.J14365/08, 24 h) was over 500 µM, the MIC ([8]; SP.J14365/08, 48 h) was over 500 µM and the MIC ([9]; CCM4517, 24 h) was over 500 µM. The MIC ([9]; CCM4517, 48 h) was over 500 µM, the MIC ([10]; CCM1961, 72 h) was over 500 µM and the MIC ([10]; CCM1961, 120 h) was over 500 µM. For the same compound, the MIC ([11]; ATCC44859, 24 h) was 500 µM (≈ 125 µg/mL), the MIC ([11]; ATCC44859, 48 h) was over 500 µM and the MIC (Candida tropicalis 156; Candida tropicalis, 156, 24 h) was over 500 µM. It also gave an MIC (Candida tropicalis 156; Candida tropicalis, 156, 48 h) of over 500 µM, an MIC (Candida krusei E28; E28, 24 h) of over 500 µM and an MIC (Candida krusei E28; E28, 48 h) of over 500 µM. For the same compound, the MIC (Candida glabrata 20/I; 24 h) was over 500 µM, the MIC (Candida glabrata 20/I; 48 h) was over 500 µM and the MIC (Trichosporon asahii 1188; [22]) was over 500 µM. For the same compound, the MIC (Trichosporon asahii 1188; [23]) was over 500 µM, the MIC [12, 24] was over 500 µM and the MIC [12, 25] was over 500 µM. For the same compound, the MIC [13, 26] was over 500 µM, the MIC [13, 27] was over 500 µM and the MIC [14, 28] was over 500 µM. It also gave an MIC [14, 29] of over 500 µM, an MIC [15] of at least 500 µM and a melting point of 190.1 to 190.8 °C.

In the case of O=C(Nc1cnc(Cl)cn1)c1ccc(O)cc1 [Compound 2d], the “Mtb H37Rv ATCC 27294 MIC” value [1] is reported as over 100 µg/mL, the MIC [1, 17] is reported as over 100 µg/mL and the MIC [2] is reported as over 100 µg/mL. The MIC [3] was over 100 µg/mL, the MIC [4] was at least 500 µg/mL and the MIC [5, 18] was 31.2 µM (≈ 7.8 µg/mL). The MIC [5, 19] was 31.2 µM (≈ 7.8 µg/mL), the “MIC MRSA” value ([6]; 24 h) was over 500 µM and the “MIC MRSA” value ([6]; 48 h) was over 500 µM. It also gave an MIC ([6]; 24 h) of over 500 µM, an MIC ([6]; 48 h) of over 500 µM and an MIC [7, 20] of 500 µM (≈ 125 µg/mL). It also gave an MIC [7, 21] of 500 µM (≈ 125 µg/mL), an MIC ([8]; SP.J14365/08, 24 h) of over 500 µM and an MIC ([8]; SP.J14365/08, 48 h) of over 500 µM. The MIC ([9]; CCM4517, 24 h) was over 500 µM, the MIC ([9]; CCM4517, 48 h) was over 500 µM and the MIC ([10]; CCM1961, 72 h) was over 500 µM. For the same compound, the MIC ([10]; CCM1961, 120 h) was over 500 µM, the MIC ([11]; ATCC44859, 24 h) was 500 µM (≈ 125 µg/mL) and the MIC ([11]; ATCC44859, 48 h) was over 500 µM. For the same compound, the MIC (Candida tropicalis 156; Candida tropicalis, 156, 24 h) was over 500 µM, the MIC (Candida tropicalis 156; Candida tropicalis, 156, 48 h) was over 500 µM and the MIC (Candida krusei E28; E28, 24 h) was over 500 µM. It also gave an MIC (Candida krusei E28; E28, 48 h) of over 500 µM, an MIC (Candida glabrata 20/I; 24 h) of over 500 µM and an MIC (Candida glabrata 20/I; 48 h) of over 500 µM. The MIC (Trichosporon asahii 1188; [22]) was over 500 µM, the MIC (Trichosporon asahii 1188; [23]) was over 500 µM and the MIC [12, 24] was over 500 µM. It also gave an MIC [12, 25] of over 500 µM, an MIC [13, 26] of over 500 µM and an MIC [13, 27] of over 500 µM. For the same compound, the MIC [14, 28] was over 500 µM, the MIC [14, 29] was over 500 µM and the MIC [15] was at least 500 µM. The melting point was 210.9 to 212.6 °C.
